The target in experiment [1] is T1, Thyrotropin receptor (Homo sapiens, UniProt P16473). Description: Agonist activity at TSHR (unknown origin) expressed in CHO cells. The format is functional, cell-based.
Experiment [2] deals with Lutropin-choriogonadotropic hormone receptor (Homo sapiens, UniProt P22888). Kind of experiment: Agonist activity at LHCGR (unknown origin). In kind it is functional.
The target of experiment [3] is T1, Thyrotropin receptor. Description: Agonist activity at N-terminal HA-tagged TSHR (unknown origin) stably expressed in CHO cells assessed as change in intracellular […] level incubated for 60 mins by CRE-driven luciferase reporter based microplate reader. The format is functional, cell-based.
In experiment [4] the target is T1, Thyrotropin receptor. Kind of experiment: Agonist activity at N-terminal HA-tagged TSHR (unknown origin) assessed as intracellular calcium level measured for 60 mins by HTS assay. The format is functional, cell-based.
For experiment [5], the target named is T1, Thyrotropin receptor. Description: Agonist activity at TSHR (unknown origin) stably expressed in HEK293 cells assessed as intracellular cAMP accumulation incubated for 1 hr. The format is functional, cell-based.
Experiment [6] concerns the target T2, Follicle-stimulating hormone receptor (Homo sapiens, UniProt P23945).
T2 sequence (P23945 whole entry): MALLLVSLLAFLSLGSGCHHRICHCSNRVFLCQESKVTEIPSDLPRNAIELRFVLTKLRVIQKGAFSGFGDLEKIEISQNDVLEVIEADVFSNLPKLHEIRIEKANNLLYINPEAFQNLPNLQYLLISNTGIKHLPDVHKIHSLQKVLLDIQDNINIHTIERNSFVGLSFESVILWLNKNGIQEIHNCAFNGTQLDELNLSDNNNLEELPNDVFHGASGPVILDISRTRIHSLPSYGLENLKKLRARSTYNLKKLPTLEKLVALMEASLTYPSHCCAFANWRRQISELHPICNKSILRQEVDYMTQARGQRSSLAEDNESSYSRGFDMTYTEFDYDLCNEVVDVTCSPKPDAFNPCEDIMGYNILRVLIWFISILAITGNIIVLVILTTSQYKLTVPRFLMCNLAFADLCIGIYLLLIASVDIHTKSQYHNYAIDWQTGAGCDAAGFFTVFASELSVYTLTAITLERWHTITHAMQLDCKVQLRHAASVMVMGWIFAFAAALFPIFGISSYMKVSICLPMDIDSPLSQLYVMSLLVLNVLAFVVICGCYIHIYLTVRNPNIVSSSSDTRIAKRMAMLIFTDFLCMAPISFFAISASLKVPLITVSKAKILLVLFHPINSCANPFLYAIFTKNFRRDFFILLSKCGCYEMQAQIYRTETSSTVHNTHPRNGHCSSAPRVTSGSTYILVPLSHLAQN
Kind of experiment: Agonist activity at FSHR (unknown origin). The format is functional.

The target in experiment [7] is T1, Thyrotropin receptor. Kind of experiment: Inverse agonist activity at TSH receptor (unknown origin) stably expressed in HEK293 cells assessed as reduction in TSH-induced cAMP production incubated for 40 mins by ELISA analysis. In kind it is functional, cell-based.
Experiment [8] has as its target T1, Thyrotropin receptor. Description: Agonist activity at TSHR (unknown origin). In kind it is functional.
A short description of experiment [9]: Inhibition of b-TSH-induced C-terminal GFP-tagged mouse TSHR activation expressed in HEK293 cells by cAMP assay. The format is cell-based.

Molecules are shown by their SMILES. pEC50, pIC50: −log10 of the molar value.

T1 sequence (P16473 whole entry): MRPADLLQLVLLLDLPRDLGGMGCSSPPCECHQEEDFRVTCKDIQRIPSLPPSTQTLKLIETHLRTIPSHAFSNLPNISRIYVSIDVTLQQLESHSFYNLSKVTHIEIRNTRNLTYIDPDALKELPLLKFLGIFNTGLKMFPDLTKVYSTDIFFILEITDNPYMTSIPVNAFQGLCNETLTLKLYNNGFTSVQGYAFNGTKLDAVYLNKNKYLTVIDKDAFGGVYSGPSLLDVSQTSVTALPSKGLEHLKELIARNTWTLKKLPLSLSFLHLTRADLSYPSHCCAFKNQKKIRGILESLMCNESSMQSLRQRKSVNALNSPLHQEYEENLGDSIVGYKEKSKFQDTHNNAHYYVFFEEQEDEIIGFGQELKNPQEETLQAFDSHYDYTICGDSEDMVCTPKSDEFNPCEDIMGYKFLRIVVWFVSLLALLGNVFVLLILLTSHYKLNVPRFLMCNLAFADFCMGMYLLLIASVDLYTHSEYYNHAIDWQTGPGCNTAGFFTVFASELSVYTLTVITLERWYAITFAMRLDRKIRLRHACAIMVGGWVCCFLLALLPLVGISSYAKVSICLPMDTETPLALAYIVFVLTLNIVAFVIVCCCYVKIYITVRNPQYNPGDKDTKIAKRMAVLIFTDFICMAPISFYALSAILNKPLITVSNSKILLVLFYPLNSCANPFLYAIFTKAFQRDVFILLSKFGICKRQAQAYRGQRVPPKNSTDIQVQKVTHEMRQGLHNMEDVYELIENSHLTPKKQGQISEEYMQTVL
Chain of Lutropin-choriogonadotropic hormone receptor (P22888 whole entry): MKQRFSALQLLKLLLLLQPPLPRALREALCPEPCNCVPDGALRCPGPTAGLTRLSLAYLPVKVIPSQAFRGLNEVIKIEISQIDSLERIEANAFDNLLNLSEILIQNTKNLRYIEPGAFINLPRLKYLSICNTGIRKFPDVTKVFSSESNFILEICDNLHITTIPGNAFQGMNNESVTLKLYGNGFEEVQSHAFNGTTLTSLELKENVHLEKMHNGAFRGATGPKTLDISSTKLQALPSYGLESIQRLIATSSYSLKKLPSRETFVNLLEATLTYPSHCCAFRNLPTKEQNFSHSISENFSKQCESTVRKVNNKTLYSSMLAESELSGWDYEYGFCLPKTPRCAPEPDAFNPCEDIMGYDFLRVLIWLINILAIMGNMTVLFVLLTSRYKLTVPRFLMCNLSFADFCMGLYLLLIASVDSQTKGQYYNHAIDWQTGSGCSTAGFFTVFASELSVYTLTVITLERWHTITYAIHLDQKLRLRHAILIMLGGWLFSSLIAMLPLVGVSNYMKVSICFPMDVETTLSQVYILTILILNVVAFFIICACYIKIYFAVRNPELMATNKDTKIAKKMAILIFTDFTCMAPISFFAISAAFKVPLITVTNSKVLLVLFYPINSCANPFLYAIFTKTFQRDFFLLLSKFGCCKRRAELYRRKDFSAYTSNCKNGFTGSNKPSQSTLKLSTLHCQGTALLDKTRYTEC

Molecule `COC/C=C/c1ccc(-c2nc(SC)nc3sc(C(=O)NC(C)(C)C)c(N)c23)cc1` showed a pEC50 in [1] of 8.38.
In the case of `CC(C)N(C(=O)c1cc(-c2ccccc2)nc2ccccc12)C(C)C`, the values for the pEC50 in experiment [2] and in [3] were < 5.00 and 6.89, respectively.
In the case of `CNc1nc(-c2c(-c3ccccc3)[nH]c3ccccc23)cs1`, in experiment [4], the pEC50 was 4.91.
`COc1cccc(-c2nc(SC)nc3sc(C(=O)NC(C)(C)C)c(N)c23)c1` gave a pEC50 in experiment [2] of 6.46.
For the molecule `COc1ccc(C2Nc3cccc(O)c3C(=O)N2Cc2ccccc2)cc1COc1ccc(NC(C)=O)cc1` (stereo unspecified), the pEC50 in [5] is 7.40.
In turn, `COc1ccc(C2Nc3ccccc3C(=O)N2Cc2ccco2)cc1COc1c(C)cccc1C` (stereo unspecified) showed a pEC50 in [2] of 6.32. The pIC50 in experiment [6] is 5.34.
Take `COc1ccc(C2Nc3ccccc3C(=O)N2Cc2ccco2)cc1COc1ccc(NC(C)=O)cc1` (stereo unspecified): the pEC50 in [5] was 6.22.
For the molecule `COc1ccc(C2Nc3ccccc3C(=O)N2Cc2ccco2)cc1COc1c(C)cc(NC(C)=O)cc1C` (stereo unspecified), the pEC50 in experiment [2] is < 4.52. For the same molecule, the pIC50 in experiment [7] is 5.64; in experiment [6], < 4.52.
In turn, `CC(c1ccccc1)c1nc(N2CCNCC2)nc2ccccc12` (stereo unspecified) gave a pEC50 in [8] of 7.94.
`COc1ccc(C2Nc3ccccc3C(=O)N2Cc2cccnc2)cc1COc1c(C)cccc1C` (stereo unspecified): the negative logarithm of the EC50 (pEC50) in experiment [2] is < 4.52. For the same molecule, the results for the negative-log IC50 (pIC50) in [7] and in experiment [6] were 5.46 and < 4.52, respectively.
`CCCc1ccc(-c2cc(C(=O)NCc3ccncc3)c3ccccc3n2)cc1`: the pEC50 in experiment [8] and in [1] was 8.08 each time.
Take `O=C1[C@@H]2[C@H]3C[C@H]([C@@H]4Sc5[nH]c(=O)sc5[C@@H](c5ccccc5)[C@H]34)[C@@H]2C(=O)N1c1ccccc1`: the negative logarithm of the IC50 (pIC50) in experiment [9] was 4.40.
With `CC1=C(C(=O)OCc2ccccc2)C(c2ccc(C(F)(F)F)cc2)NC(=O)N1` (stereo unspecified), the values for the pEC50 in [2] and in [3] were < 5.00 and 6.27, respectively.

(Values after ChEMBL document CHEMBL5614439, “Targeting Thyroid-Stimulating Hormone Receptor: A Perspective on Small-Molecule Modulators and Their Therapeutic Potential” (J Med Chem, 2024).)
